From patent publication US9593110B2, “Neprilysin inhibitors” (Theravence Biopharma R&D IP, LLC, priority 2014, dated 2017) come the findings set out here.

The assay concerns the target human NEP (Homo sapiens (Human), UniProt P08473). The experiment in a line: In vitro enzyme inhibition assay at human NEP. Conditions: recombinant human NEP, fluorogenic peptide substrate, 37° C.; for Ki: pKi.

Sequence of human NEP (P08473 52-750): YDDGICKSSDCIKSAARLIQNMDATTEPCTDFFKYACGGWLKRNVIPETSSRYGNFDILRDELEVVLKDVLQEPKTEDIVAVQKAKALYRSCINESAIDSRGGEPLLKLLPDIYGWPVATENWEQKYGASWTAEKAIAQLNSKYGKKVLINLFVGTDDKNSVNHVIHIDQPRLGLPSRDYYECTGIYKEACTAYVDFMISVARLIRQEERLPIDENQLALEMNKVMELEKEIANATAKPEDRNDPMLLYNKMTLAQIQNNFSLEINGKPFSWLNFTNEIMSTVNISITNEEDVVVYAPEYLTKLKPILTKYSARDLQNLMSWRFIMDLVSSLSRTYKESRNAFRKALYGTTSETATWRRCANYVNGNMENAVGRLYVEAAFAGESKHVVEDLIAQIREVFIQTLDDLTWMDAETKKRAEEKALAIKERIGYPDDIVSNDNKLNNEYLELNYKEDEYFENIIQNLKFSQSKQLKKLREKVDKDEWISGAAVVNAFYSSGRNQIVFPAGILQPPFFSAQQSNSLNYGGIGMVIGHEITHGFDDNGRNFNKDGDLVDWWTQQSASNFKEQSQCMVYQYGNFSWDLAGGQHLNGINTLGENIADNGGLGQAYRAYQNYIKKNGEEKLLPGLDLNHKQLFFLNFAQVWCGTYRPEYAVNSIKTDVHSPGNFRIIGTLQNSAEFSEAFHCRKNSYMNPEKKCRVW

On to `CNC(=O)c1cc(C(=O)N[C@H](Cc2ccc(-c3cc(Cl)ccc3F)cc2)C[C@@H](N)C(=O)O)[nH]n1` [Example 16-21, (2R,4R)-2-Amino-5-(5′-chloro-2′-fluorobiphenyl-4-yl)-4-[(5-methylcarbamoyl-2H-pyrazole-3-carbonyl)amino]pentanoic acid], for which the pKi entry is on record as “≧9.0”.

Regarding `COC[C@H](C[C@@H](Cc1ccc(-c2cccc(Cl)c2)cc1)NC(=O)c1cc(O)no1)C(=O)O` [Example 4-2, (2S,4S)-5-(3′-Chlorobiphenyl-4-yl)-4-[(3-hydroxy-isoxazole-5-carbonyl)amino]-2-methoxymethylpentanoic acid], the pKi result is on record as “≧9.0”.

On to `CCOC[C@H](C[C@@H](Cc1ccc(-c2cccc(Cl)c2)cc1)NC(=O)c1n[nH]c(C(F)(F)F)n1)C(=O)O` [Example 9-3, (2S,4S)-5-(3′-Chlorobiphenyl-4-yl)-2-ethoxymethyl-4-[(5-trifluoromethyl-1H-[1,2,4]triazole-3-carbonyl)amino]pentanoic acid], for which the pKi result was “≧9.0”.

As for `N[C@@H](Cc1ccccc1)C(=O)N[C@H](C[C@@H](Cc1ccc(-c2cc(Cl)ccc2F)cc1)NC(=O)c1cnn[nH]1)C(=O)O` [Example 57, (2R,4R)-2-((S)-2-Amino-3-phenylpropionylamino)-5-(5′-chloro-2′-fluorobiphenyl-4-yl)-4-[(3H-[1,2,3]triazole-4-carbonyl)amino]pentanoic Acid], the pKi result is reported as “≧9.0”.

For `N[C@@H](C[C@@H](Cc1ccc(-c2cc(Cl)ccc2F)cc1)NC(=O)c1noc(=O)[nH]1)C(=O)O` [Example 16-15, (2S,4R)-2-Amino-5-(5′-chloro-2′-fluorobiphenyl-4-yl)-4-[(5-oxo-4,5-dihydro-[1,2,4]oxadiazole-3-carbonyl)amino]pentanoic acid], the Ki (commonly a measure of affinity in units of concentration, obtained from inhibition or displacement) was in the range of 3.16 to 10 nM.

In the case of `O=C(N[C@H](Cc1ccc(-c2cc(Cl)ccc2F)cc1)C[C@@H](CNCCCO)C(=O)O)c1cnn[nH]1` [Example 87b, (2S,4S)-5-(5′-Chloro-2′-fluorobiphenyl-4-yl)-2-[(3-hydroxypropylamino)methyl]-4-[(3H-[1,2,3]triazole-4-carbonyl)amino]pentanoic Acid], the Ki was no more than 1 nM.

As for `N[C@H](C[C@@H](Cc1ccc(-c2cc(Cl)ccc2F)cc1)NC(=O)c1coc(C2CC2)n1)C(=O)O` [Example 16-4, (2R,4R)-2-Amino-5-(5′-chloro-2′-fluorobiphenyl-4-yl)-4-[(2-cyclopropyloxazole-4-carbonyl)amino]pentanoic acid], the Ki lay within 1.26 to 3.16 nM.

For the molecule `CC(C)c1coc(C(=O)N[C@H](Cc2ccc(-c3cc(Cl)ccc3F)cc2)C[C@@H](NC(=O)C(C)(C)N)C(=O)O)n1` [Example 35, (2R,4R)-2-(2-Amino-2-methylpropionylamino)-5-(5′-chloro-2′-fluorobiphenyl-4-yl)-4-[(4-isopropyloxazole-2-carbonyl)amino]pentanoic Acid], the Ki lay in the range of 3.16 to 10 nM.

On to `CCOC[C@H](C[C@@H](Cc1ccc(-c2cccc(Cl)c2)cc1)NC(=O)c1cc(C(C)=O)[nH]n1)C(=O)O` [Example 9-2, (2S,4S)-4-[(5-Acetyl-1H-pyrazole-3-carbonyl)-amino]-5-(3′-chlorobiphenyl-4-yl)-2-ethoxymethylpentanoic acid], for which the pKi result was “≧9.0”.

Consider `CN(C)CCCC(=O)N[C@H](C[C@@H](Cc1ccc(-c2cc(Cl)ccc2F)cc1)NC(=O)c1c[nH]nn1)C(=O)O` [Example 73, (2R,4R)-5-(5′-Chloro-2′-fluorobiphenyl-4-yl)-2-(4-dimethylaminobutyrylamino)-4-[(1H-[1,2,3]triazole-4-carbonyl)amino]pentanoic Acid], for which the pKi entry is “≧9.0”.

As for `CC(C)c1coc(C(=O)N[C@H](Cc2ccc(-c3cc(Cl)ccc3F)cc2)C[C@@H](CCN)C(=O)O)n1` [Example 24-1, (2R,4S)-2-(2-Aminoethyl)-5-(5′-chloro-2′-fluorobiphenyl-4-yl)-4-[(4-isopropyloxazole-2-carbonyl)amino]pentanoic acid], the Ki is 3.16 to 10 nM.

For the molecule `COCCCNC[C@H](C[C@@H](Cc1ccc(-c2cc(Cl)ccc2F)cc1)NC(=O)c1cnn[nH]1)C(=O)O` [Example 74, (2S,4S)-5-(5′-Chloro-2′-fluorobiphenyl-4-yl)-2-[(3-methoxypropylamino)-methyl]-4-[(3H-[1,2,3]triazole-4-carbonyl)amino]pentanoic Acid], the inhibition constant Ki fell in the range of 1.26 to 3.16 nM.

On to `CCc1cc(C(=O)N[C@H](Cc2ccc(-c3cc(Cl)ccc3F)cc2Cl)C[C@H](N)C(=O)O)on1` [Example 18-6, (2S,4R)-2-Amino-5-(3,5′-dichloro-2′-fluorobiphenyl-4-yl)-4-[(3-ethylisoxazole-5-carbonyl)amino]pentanoic acid], for which the pKi entry was “≧9.0”.

For the molecule `CCc1cc(C(=O)N[C@H](Cc2ccc(-c3cc(Cl)ccc3F)cc2Cl)C[C@@H](N)C(=O)O)on1` [Example 18-5, (2R,4R)-2-Amino-5-(3,5′-dichloro-2′-fluorobiphenyl-4-yl)-4-[(3-ethylisoxazole-5-carbonyl)amino]pentanoic acid], the Ki was in the range of 1.26 to 3.16 nM.

Regarding `N#CC[C@H](C[C@@H](Cc1ccc(-c2ccccc2)cc1)NC(=O)c1cnn[nH]1)C(=O)O` [Example 50, (2S,4S)-5-Biphenyl-4-yl-2-cyanomethyl-4-[(3H-[1,2,3]triazole-4-carbonyl)amino]pentanoic Acid], the pKi result is “≧9.0”.

`COC(=O)N[C@H](C[C@@H](Cc1ccc(-c2cc(Cl)ccc2F)cc1)NC(=O)c1c[nH]nn1)C(=O)O` [Example 30-1, (2R,4R)-5-(5′-Chloro-2′-fluoro-biphenyl-4-yl)-2-methoxycarbonylamino-4-[(1H-[1,2,3]triazole-4-carbonyl)amino]pentanoic acid]: the pKi entry is on record as “≧9.0”.

On to `N#CC1CN(C[C@H](C[C@@H](Cc2ccc(-c3cc(Cl)ccc3F)cc2)NC(=O)c2cnn[nH]2)C(=O)O)C1` [Example 88b, (2S,4S)-5-(5′-Chloro-2′-fluorobiphenyl-4-yl)-2-(3-cyanoazetidin-1-ylmethyl)-4-[(3H-[1,2,3]triazole-4-carbonyl)amino]pentanoic Acid], for which the Ki is no more than 1 nM.

For `CC(C)c1coc(C(=O)N[C@H](Cc2ccc(-c3cc(Cl)ccc3F)cc2)C[C@@H](NC(=O)[C@@H](N)C(C)C)C(=O)O)n1` [Example 38-2, (2R,4R)-2-((S)-2-Amino-3-methylbutyrylamino)-5-(5′-chloro-2′-fluorobiphenyl-4-yl)-4-[(4-isopropyloxazole-2-carbonyl)-amino]pentanoic Acid], the Ki fell in the range of 1.26 to 3.16 nM.

On to `N[C@H](C[C@@H](Cc1ccc(-c2cc(Cl)ccc2F)cc1)NC(=O)c1ccc(Cl)cn1)C(=O)O` [Example 16-7, (2R,4R)-2-Amino-5-(5′-chloro-2′-fluorobiphenyl-4-yl)-4-[(5-chloropyridine-2-carbonyl)-amino]pentanoic acid], for which the Ki is 3.16 to 10 nM.

Take `CC(C)c1coc(C(=O)N[C@H](Cc2ccc(-c3cc(Cl)ccc3F)cc2)C[C@@H](N)C(=O)O)n1` [Example 15, (2R,4R)-2-Amino-5-(5′-chloro-2′-fluorobiphenyl-4-yl)-4-[(4-isopropyloxazole-2-carbonyl)amino]pentanoic Acid]: the Ki was no more than 1 nM.

As for `CCOc1nc(C(=O)N[C@H](Cc2ccc(-c3cc(Cl)ccc3F)cc2)C[C@@H](N)C(=O)O)co1` [Example 16-5, (2R,4R)-2-Amino-5-(5′-chloro-2′-fluorobiphenyl-4-yl)-4-[(2-ethoxyoxazole-4-carbonyl)-amino]pentanoic acid], the Ki was 3.16 to 10 nM.

With `CC(=O)N1CCC(C(C[C@@H](Cc2ccc(-c3ccccc3)cc2)NC(=O)c2cnn[nH]2)C(=O)O)CC1` (stereo in doubt) [Example 60, (S)-2-(1-Acetylpiperidin-4-yl)-5-biphenyl-4-yl-4-[(3H-[1,2,3]triazole-4-carbonyl)amino]pentanoic Acid], the Ki fell in the range of 3.16 to 10 nM.

As to `N[C@@H](C[C@@H](Cc1ccc(-c2cc(Cl)ccc2F)cc1)NC(=O)c1nc2cc(Cl)ccn2n1)C(=O)O` [Example 16-26, (2S,4R)-2-Amino-5-(5′-chloro-2′-fluorobiphenyl-4-yl)-4-[(7-chloro-[1,2,4]triazolo[1,5-a]pyridine-2-carbonyl)amino]pentanoic acid], the Ki lay within 1.26 to 3.16 nM.

As to `N[C@H](C[C@@H](Cc1ccc(-c2cc(Cl)ccc2F)cc1)NC(=O)c1noc(=O)[nH]1)C(=O)O` [Example 16-16, (2R,4R)-2-Amino-5-(5′-chloro-2′-fluorobiphenyl-4-yl)-4-[(5-oxo-4,5-dihydro-[1,2,4]oxadiazole-3-carbonyl)amino]pentanoic acid], the pKi entry is given as “≧9.0”.

As to `COC(=O)NCC(=O)N[C@H](C[C@@H](Cc1ccc(-c2cc(Cl)ccc2F)cc1)NC(=O)c1c[nH]nn1)C(=O)O` [Example 67, (2R,4R)-5-(5′-Chloro-2′-fluorobiphenyl-4-yl)-2-(2-methoxycarbonylaminoacetylamino)-4-[(1H-[1,2,3]triazole-4-carbonyl)amino]pentanoic Acid], the pKi entry is recorded as “≧9.0”.

For `O=C(N[C@H](Cc1ccc(-c2cc(Cl)ccc2F)cc1)C[C@@H](CN1CC[C@@H]1CO)C(=O)O)c1cnn[nH]1` [Example 94b], the Ki is no more than 1 nM.

Consider `NC[C@H](C[C@@H](Cc1ccc(-c2cc(Cl)ccc2F)cc1)NC(=O)c1coc(C2CC2)n1)C(=O)O` [Example 21-2, (2S,4S)-2-Aminomethyl-5-(5′-chloro-2′-fluorobiphenyl-4-yl)-4-[(2-cyclopropyl-oxazole-4-carbonyl)amino]pentanoic acid], for which the Ki is 1.26 to 3.16 nM.

With `COC[C@H]1CCN1C[C@H](C[C@@H](Cc1ccc(-c2cc(Cl)ccc2F)cc1)NC(=O)c1c[nH]nn1)C(=O)O` [Example 103b, (2S,4S)-5-(5′-Chloro-2′-fluorobiphenyl-4-yl)-2-((R)-2-methoxymethylazetidin-1-ylmethyl)-4-[(3H-[1,2,3]triazole-4-carbonyl)amino]pentanoic Acid], the Ki is no more than 1 nM.

For the molecule `CC1(C)CN(C[C@H](C[C@@H](Cc2ccc(-c3cc(Cl)ccc3F)cc2)NC(=O)c2cnn[nH]2)C(=O)O)C1` [Example 89b, (2S,4S)-5-(5′-Chloro-2′-fluorobiphenyl-4-yl)-2-(3,3-dimethylazetidin-1-ylmethyl)-4-[(3H-[1,2,3]triazole-4-carbonyl)amino]pentanoic Acid], the Ki is no more than 1 nM.
